Biological target: T1, human FSH receptor (Homo sapiens, UniProt P23945)
T1 construct: expressed in transfected cells; host or cells: CHO cells (hFSHR clone 16)
T1 sequence (P23945 18-695): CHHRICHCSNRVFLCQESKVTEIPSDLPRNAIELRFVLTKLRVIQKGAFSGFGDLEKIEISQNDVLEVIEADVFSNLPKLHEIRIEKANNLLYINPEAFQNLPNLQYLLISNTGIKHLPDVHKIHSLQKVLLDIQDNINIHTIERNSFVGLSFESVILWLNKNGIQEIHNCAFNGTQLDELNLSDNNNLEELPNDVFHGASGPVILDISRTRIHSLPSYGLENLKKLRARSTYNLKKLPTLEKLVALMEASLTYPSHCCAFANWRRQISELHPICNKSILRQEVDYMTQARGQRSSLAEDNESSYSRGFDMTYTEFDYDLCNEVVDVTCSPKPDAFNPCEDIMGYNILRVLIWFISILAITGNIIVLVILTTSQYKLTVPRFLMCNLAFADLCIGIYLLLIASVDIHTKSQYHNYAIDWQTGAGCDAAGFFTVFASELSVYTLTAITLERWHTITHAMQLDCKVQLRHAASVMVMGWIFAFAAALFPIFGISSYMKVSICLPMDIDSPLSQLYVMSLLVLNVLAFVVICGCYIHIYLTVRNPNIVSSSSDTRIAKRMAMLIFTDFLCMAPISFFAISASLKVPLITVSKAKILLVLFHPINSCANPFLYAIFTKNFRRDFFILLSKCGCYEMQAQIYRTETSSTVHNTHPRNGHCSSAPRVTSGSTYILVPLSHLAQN
Assay: HTRF assay for measuring cAMP in cells, FSH-antagonistic effect (in the presence of hFSH)
Type: cell-based
Conditions: hFSHR clone 16 cells (CHO cells stably transfected with the human FSH receptor), in the presence of 1e-9 mol/l hFSH, 37° C. for 2 h
From the text: […]

COc1cc(-c2cc(C(=O)NC(CO)Cc3c[nH]c4ccc(Br)cc34)c3ccccc3n2)cc(OC)c1OC (racemic) [Example 1, N-[(R,S)-2-(5-Bromo-1H-indol-3-yl)-1-(hydroxymethyl)ethyl]-2-(3,4,5-trimethoxyphenyl)quinoline-4-carboxamide]
IC50: 7 µM

COc1cc(-c2cc(C(=O)NC(CO)Cc3c[nH]c4cc(F)ccc34)c3ccccc3n2)cc(OC)c1OC (racemic) [Example 8, N-[(R,S)-2-(6-Fluoro-1H-indol-3-yl)-1-(hydroxymethyl)ethyl]-2-(3,4,5-trimethoxyphenyl)quinoline-4-carboxamide]
IC50: 1 µM

COc1cc(-c2cc(C(=O)NC(CO)Cc3c[nH]c4ccc(OCc5ccccc5)cc34)c3ccccc3n2)cc(OC)c1OC (racemic) [Example 9, N-[(R,S)-1-(Hydroxymethyl)-2-[5-(phenylmethoxy)-1H-indol-3-yl]ethyl]-2-(3,4,5-trimethoxyphenyl)quinoline-4-carboxamide]
IC50: 0.2 µM

COc1cc(-c2cc(C(=O)NC(CO)Cc3c[nH]c4c(C)cccc34)c3ccccc3n2)cc(OC)c1OC (racemic) [Example 10, N-[(R,S)-1-(Hydroxymethyl)-2-(7-methyl-1H-indol-3-yl)ethyl]-2-(3,4,5-trimethoxyphenyl)quinoline-4-carboxamide]
IC50: 1 µM

COc1ccc2nc(-c3ccc(OC)c(OC)c3OC)cc(C(=O)N[C@@H](CO)Cc3c[nH]c4ccccc34)c2c1 [Example 16, N-[(R)-1-(Hydroxymethyl)-2-(1H-indol-3-yl)ethyl]-6-methoxy-2-(2,3,4-trimethoxyphenyl)quinoline-4-carboxamide]
IC50: 4 µM

COc1cc(-c2cc(C(=O)N[C@@H](CO)Cc3c[nH]c4ccccc34)c3cc(F)ccc3n2)cc(OC)c1OC [Example 17, 6-Fluoro-N-[(R)-1-(hydroxymethyl)-2-(1H-indol-3-yl)ethyl]-2-(3,4,5-trimethoxyphenyl)quinoline-4-carboxamide]
IC50: 0.4 µM

COc1cc(-c2cc(C(=O)N[C@@H](CO)Cc3c[nH]c4ccccc34)c3cc([N+](=O)[O-])ccc3n2)cc(OC)c1OC [Example 19, N-[(R)-1-(Hydroxymethyl)-2-(1H-indol-3-yl)ethyl]-6-nitro-2-(3,4,5-trimethoxyphenyl)quinoline-4-carboxamide]
IC50: 6 µM

COc1ccc2nc(-c3cc(OC)c(OC)c(OC)c3)cc(C(=O)N[C@@H](CO)Cc3cn(C)c4ccccc34)c2c1 [Example 22, N-[(R)-1-(Hydroxymethyl)-2-(1-methyl-1H-indol-3-yl)ethyl]-6-methoxy-2-(3,4,5-trimethoxyphenyl)quinoline-4-carboxamide]
IC50: 0.3 µM

O=C(N[C@@H](CO)Cc1c[nH]c2ccccc12)c1cc(-c2ccc3c(c2)CCO3)nc2ccccc12 [Example 36, 2-(2,3-Dihydrobenzofuran-5-yl)-N-[(R)-1-(hydroxymethyl)-2-(1H-indol-3-yl)ethyl]quinoline-4-carboxamide]
IC50: 6 µM

COc1ccc2nc(/C=C/c3ccc(OC)c(OC)c3)cc(C(=O)N[C@@H](CO)Cc3c[nH]c4ccccc34)c2c1 [Example 38, 2-[(E)-2-(3,4-Dimethoxyphenyl)ethenyl]-N-[(R)-1-(hydroxymethyl)-2-(1H-indol-3-yl)ethyl]-6-methoxyquinoline-4-carboxamide]
IC50: 0.9 µM

CC(C)c1cccc(-c2cccc(C(=O)N[C@@H](CO)Cc3c[nH]c4ccccc34)c2)c1 [Example 59, N-[(R)-1-(Hydroxymethyl)-2-(1H-indol-3-yl)ethyl]-3′-(1-methylethyl)[1,1′-biphenyl]-3-carboxamide]
IC50: 6 µM

CC(C)c1cccc(-c2ccccc2C(=O)N[C@@H](CO)Cc2c[nH]c3ccccc23)c1 [Example 86, N-[(R)-1-(Hydroxymethyl)-2-(1H-indol-3-yl)ethyl]-3′-(1-methylethyl)[1,1′-biphenyl]-2-carboxamide]
IC50: 8 µM

COc1ccc(OC)c(-c2cccc(C(=O)N[C@@H](CO)Cc3c[nH]c4ccccc34)c2)c1 [Example 87, N-[(R)-1-(Hydroxymethyl)-2-(1H-indol-3-yl)ethyl]-2′,5′-dimethoxy-[1,1′-biphenyl]-3-carboxamide]
IC50: 10 µM

COc1ccc(-c2cc(F)c(F)c(F)c2)c(C(=O)N[C@@H](CO)Cc2c[nH]c3ccccc23)c1 [Example 88, 3′,4′, 5′-Trifluoro-N-[(R)-1-(hydroxymethyl)-2-(1H-indol-3-yl)ethyl]-4-methoxy[1,1′-biphenyl]-2-carboxamide]
IC50: 10 µM

COc1cc(COc2ccccc2CCC(=O)N[C@@H](CO)Cc2c[nH]c3ccccc23)cc(OC)c1OC [Example 91, N-[(R)-1-(Hydroxymethyl)-2-(1H-indol-3-yl)ethyl]-2-[(3,4,5-trimethoxyphenyl)methoxy]phenylpropanamide]
IC50: 6 µM

COc1ccc2nc(CCc3ccc(OC)c(OC)c3)cc(C(=O)N[C@@H](CO)Cc3c[nH]c4ccccc34)c2c1 [Example 96, 2-[2-(3,4-dimethoxyphenyl)ethyl]-N-[(R)-1-(hydroxymethyl)-2-(1H-indol-3-yl)ethyl]-6-methoxyquinoline-4-carboxamide]
IC50: 7 µM

COc1ccc2cc(-c3cc(C(=O)N[C@@H](CO)Cc4c[nH]c5ccccc45)c4ccccc4n3)ccc2c1 [Example 97, 2-(6-Methoxy-naphthalen-2-yl)quinoline-4-carboxylic acid [(R)-1-hydroxymethyl-2-(1H-indol-3-yl)ethyl]amide]
IC50: 4 µM

Cc1nc(C)c(-c2cc(C(=O)N[C@@H](CO)Cc3c[nH]c4ccccc34)c3cc(Br)ccc3n2)s1 [Example 108, 6-Bromo-2-(2,4-dimethyl-thiazol-5-yl)quinoline-4-carboxylic acid [(R)-2-hydroxy-1-(1H-indol-3-ylmethyl)ethyl]amide]
IC50: 3 µM

COc1ccc2nc(-c3cc4c(F)cccc4o3)cc(C(=O)N[C@@H](CO)Cc3c[nH]c4ccccc34)c2c1 [Example 120, 2-(4-Fluorobenzofuran-2-yl)-N-[(R)-1-(hydroxymethyl)-2-(1H-indol-3-yl)ethyl]-6-methoxyquinoline-4-carboxamide]
IC50: 1.5 µM

CCOc1ccc(-c2cnc(OC)nc2)cc1C(=O)N[C@@H](CO)Cc1c[nH]c2ccccc12 [Example 130, 2-Ethoxy-N-[(R)-1-hydroxymethyl-2-(1H-indol-3-yl)ethyl]-5-(2-methoxypyrimidin-5-yl)benzamide]
IC50: 4 µM

CCOc1ccc(-c2ccc(C)cc2)cc1C(=O)N[C@@H](CO)Cc1c[nH]c2ccccc12 [Example 162, 4-Ethoxy-4′-methylbiphenyl-3-carboxylic acid [(R)-1-hydroxy-methyl-2-(1H-indol-3-yl)ethyl]amide]
IC50: 1.5 µM

COc1ccc(-c2ccc(OC)c(C(=O)N[C@@H](CO)Cc3c[nH]c4ccccc34)c2)cc1F [Example 307, 3′-Fluoro-4,4′-dimethoxybiphenyl-3-carboxylic acid [(R)-2-hydroxy-1-(1H-indol-3-ylmethyl)ethyl]amide]
IC50: 0.45 µM

CCn1cc(C[C@H](CO)NC(=O)c2cc(-c3cc(F)c(OC)c(F)c3)nc3ccc(OC)cc23)c2ccccc21 [Example 337]
IC50: 3.5 µM

CCCCCCn1cc(C[C@H](CO)NC(=O)c2cc(-c3cc(OC)c(OC)c(OC)c3)nc3ccc(OC)cc23)c2ccccc21 [Example 345, N-[(R)-1-(Hydroxymethyl)-2-(1-nhexyl-1H-indol-3-yl)ethyl]-6-methoxy-2-(3,4,5-trimethoxyphenyl)quinoline-4-carboxamide]
IC50: 1 µM

COc1cc(-c2cc(C(=O)N[C@@H](CO)Cc3c[nH]c4ccccc34)c3nc[nH]c3c2)cc(OC)c1OC [Example 361, 6-(3,4,5-Trimethoxyphenyl)-1H-benzoimidazole-4-carboxylic acid [(R)-2-hydroxy-1-(1H-indol-3-ylmethyl)ethyl]amide]
IC50: 4 µM

COc1ccc2nc(-c3ccc(OC)c(F)c3)nc(C(=O)N[C@@H](CO)Cc3c[nH]c4ccccc34)c2c1 [Example 368, 2-(3-Fluoro-4-methoxyphenyl)-6-methoxyquinazoline-4-carboxylic acid [(R)-2-hydroxy-1-(1H-indol-3-ylmethyl)ethyl]amide]
IC50: 2.5 µM

COc1ccc2nc(-c3cc(OC)c(OC)c(OC)c3)cc(C(=O)N[C@H](Cc3c[nH]c4ccccc34)C(C)(C)O)c2c1 [Example 373, 6-Methoxy-2-(3,4,5-trimethoxyphenyl)quinoline-4-carboxylic acid [(R)-2-hydroxy-1-(1H-indol-3-ylmethyl)-2-methylpropyl]amide]
IC50: 8 µM

COc1cc(-c2cc(C#CCO)cc(C(=O)N[C@@H](CO)Cc3c[nH]c4ccccc34)c2)cc(OC)c1OC [Example 379, 5-(3-Hydroxyprop-1-ynyl)-3′,4′,5′-trimethoxybiphenyl-3-carboxylic acid [(R)-1-hydroxy-methyl-2-(1H-indol-3-yl)ethyl]amide]
IC50: 4.5 µM

COc1cc(-c2cc(/C=C\CCCO)cc(C(=O)N[C@@H](CO)Cc3c[nH]c4ccccc34)c2)cc(OC)c1OC [Example 388, 5-((Z)-5-Hydroxypent-1-enyl)-3′,4′,5′-trimethoxybiphenyl-3-carboxylic acid [(R)-1-hydroxy-methyl-2-(1H-indol-3-yl)ethyl]amide]
IC50: 0.4 µM

From patent US20070060573A1, “Acyltryptophanols” (priority 2005, published 2007)
